# Test results: patent US20060287315A1, “Pyrazinedicarboxamides and their use” (Bayer HealthCare AG, priority 2004, published 2006)
# Where a name gives a salt, the structure may show the parent alone.
# Molecular target: human factor Xa (FXa) (Homo sapiens, UniProt P00742)
# Assay: Determination of the factor Xa inhibition (chromogenic substrate)
# Format: biochemical
# Details: human FXa 0.5 nmol/l, Pefachrome FXa substrate, 25° C., pH 8.3, extinction at 405 nm
# Method: A.1) Determination of the Factor Xa Inhibition:
# The enzymatic inhibition of human factor Xa (FXa) is measured using the conversion of a chromogenic substrate specific for FXa. Factor Xa cleaves p-nitroaniline from the chromogenic substrate. The determinations are carried out in microtitre plates as follows:
# The test substances, in various concentrations, are dissolved in DMSO and incubated for 10 minutes at 25° C. with human FXa (0.5 nmol/l dissolved in 50 mmol/l of Tris buffer [C,C,C-tris(hydroxymethyl)aminomethane], 150 mmol/l of NaCl, 0.1% BSA [bovine serum albumin], pH=8.3). Pure DMSO is used as control. The chromogenic substrate ([…] Pefachrome® FXa from Pentapharm) is then added. After an incubation time of 20 minutes at 25° C., the extinction at 405 nm is determined.
# Sequence of human factor Xa (FXa) (P00742 235-488 limits assumed): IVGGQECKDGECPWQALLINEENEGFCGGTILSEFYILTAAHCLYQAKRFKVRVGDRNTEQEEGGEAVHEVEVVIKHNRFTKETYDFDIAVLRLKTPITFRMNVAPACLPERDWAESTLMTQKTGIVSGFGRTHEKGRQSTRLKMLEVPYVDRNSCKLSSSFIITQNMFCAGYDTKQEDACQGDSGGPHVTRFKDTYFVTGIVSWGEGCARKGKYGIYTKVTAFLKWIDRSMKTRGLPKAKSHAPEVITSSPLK
# Sequence of human factor Xa (FXa) (P00742 41-179 partner limits assumed): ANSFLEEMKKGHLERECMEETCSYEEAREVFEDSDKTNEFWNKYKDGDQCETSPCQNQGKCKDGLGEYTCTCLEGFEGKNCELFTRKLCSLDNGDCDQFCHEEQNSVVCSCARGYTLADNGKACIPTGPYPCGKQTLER
smiles,measurement,value
"O=C(Nc1ccc(Cl)cn1)c1nccnc1C(=O)Nc1ccc(N2CCCC(O)C2=O)cc1F (centres unmarked) [Example 9, N-(5-Chloropyridin-2-yl)-N′-[2-fluor-4-(3-hydroxy-2-oxopiperidin-1-yl)phenyl]pyrazine-2,3-di-carboxamide]",IC50,4.4 nM
"O=C(Nc1ccc(Cl)cc1)c1nccnc1C(=O)Nc1ccc(N2CCOCC2=O)cc1 [Example 11, N-(4-Chlorophenyl)-N′-[4-(3-oxomorpholin-4-yl)phenyl]pyrazine-2,3-dicarboxamide]",IC50,0.49 nM
"O=C(Nc1ccc(N2CCOCC2=O)cc1)c1nccnc1C(=O)Nc1ccc(Cl)cn1 [Example 12, N-(5-Chloropyridin-2-yl)-N′[4-(3-oxomorpholin-4-yl)phenyl]pyrazine-2,3-dicarboxamide]",IC50,0.16 nM
"O=C(Nc1ccc(F)cc1)c1nccnc1C(=O)Nc1ccc(N2CCOCC2=O)cc1 [Example 17, N-(4-Fluorophenyl)-N′[4-(3-oxomorpholin-4-yl)phenyl]pyrazine-2,3-dicarboxamide]",IC50,16 nM
"Cc1ccc(NC(=O)c2nccnc2C(=O)Nc2ccc(N3CCOCC3=O)cc2)cc1 [Example 18, N-(4-Methylphenyl)-N′-[4-(3-oxomorpholin-4-yl)phenyl]pyrazine-2,3-dicarboxamide]",IC50,7.5 nM
"C#Cc1ccc(NC(=O)c2nccnc2C(=O)Nc2ccc(N3CCOCC3=O)cc2)cc1 [Example 20, N-(4-Ethynylphenyl)-N′-[4-(3-oxomorpholin-4-yl)phenyl]pyrazine-2,3-dicarboxamide]",IC50,6.3 nM
"O=C(Nc1ccc(Cl)cn1)c1nccnc1C(=O)Nc1ccc(-n2cccc(CNC3CC3)c2=O)cc1F [Example 30, N-(5-Chloropyridin-2-yl)-N′-{4-[3-[(cyclopropylamino)methyl]-2-oxopyridin-1(2H)-yl]-2-fluorophenyl}pyrazine-2,3-dicarboxamide trifluoracetate, trifluoroacetate]",IC50,0.44 nM
"NCCOc1cc(N2CCOCC2=O)ccc1NC(=O)c1nccnc1C(=O)Nc1ccc(Cl)cn1 [Example 32, N-[2-(2-Aminoethoxy)-4-(3-oxomorpholin-4-yl)phenyl]-N′-(5-chloropyridin-2-yl)pyrazine-2,3-dicarboxamide trifluoroacetate]",IC50,0.3 nM
